# Measured values from US11111238B2, “Coumarin derivatives, processes for their preparation and uses thereof for the treatment of cancer” (Lead Discovery Center GmbH, priority 2017, dated 2021).
# How the values were obtained:
# [1] = target: mitochondrial RNA-polymerase (POLRMT) (Mus musculus, UniProt Q8BKF1); assay: Homogeneous TR-FRET assay for mitochondrial transcription activity; assay type: biochemical; details: homogeneous TR-FRET assay according to Example 4; activity class
# Method in brief: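 TR-FRET read-out (340 nm excitation, 665 nm emission) of a 407 bp transcript captured by Eu-streptavidin/biotin donor and ATTO647N acceptor DNA probes after EDTA stop. Transcription ran 2 h at RT with 500 μM […], mouse POLRMT/TFAM/TFB2M and LSP-plasmid template, after 10 min compound preincubation (10 μM or dilution series).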
# [2] = system: mitochondrial transcription (7S RNA) in HeLa cells; assay: Quantitative real time-PCR assay of inhibition of mitochondrial transcription (cellular qPCR assay IMT); assay type: cell-based; details: Homo sapiens, 4 h compound incubation, qRT-PCR according to Example 5, activity class
# Description: Quantitative real-time PCR (qRT-PCR), based on the TagMan™ (Thermo Fisher Scientific, Waltham Mass.) technology, was carried out essentially as described in (Heid et al., 1996). HeLa cells were plated one day before compound treatment in RPMI medium supplemented with 10% Fetal Calf Serum and 2 mM L-glutamine. Cells were incubated with dilution series of compounds or vehicle (DMSO) for 4 h, prior to harvest and extraction of the RNA using the RNeasy Mini Kit (Qiagen, Hilden D), according to the manufacturer's instructions. RNA concentrations were measured spectroscopically, using a NanoDrop-2000 (Thermo Fisher Scientific, Waltham Mass.) and normalized prior to cDNA synthesis, using a ‘High-Capacity cDNA Reverse Transcription Kit’ (Thermo Fisher Scientific, Waltham Mass.). qRT-PCR was carried out using the ‘TaqMan Fast Advance Master Mix’ (Thermo Fisher Scientific, Waltham Mass.) on a 7500 Fast Real-Time PCR machine (Applied Biosystems, Foster City Calif.)
# For these measurements, three genes were used to compare the effect of the scrutinized compounds in relation to their concentration. The POLRMT-gene was used to detect potential influences on nuclear transcription. Mitochondrial transcription in vivo was monitored by measurements 7S RNA. The TBP (TATA-box binding protein) gene was employed as the control (housekeeping gene) during qRT-PCR. The short-lived mitochondrial 7S RNA, which is not post-transcriptionally stabilized, allowed us to monitor rapid changes in mitochondrial transcription activity following compound addition. Biological triplicates were analyzed using the comparative CT Method (ΔΔCt) method (Bubner and Baldwin, 2004) and reported as Rq % values (Rq=Relative quantification=2-ΔΔCt).
# mitochondrial RNA-polymerase (POLRMT), sequence (Q8BKF1 42-1207): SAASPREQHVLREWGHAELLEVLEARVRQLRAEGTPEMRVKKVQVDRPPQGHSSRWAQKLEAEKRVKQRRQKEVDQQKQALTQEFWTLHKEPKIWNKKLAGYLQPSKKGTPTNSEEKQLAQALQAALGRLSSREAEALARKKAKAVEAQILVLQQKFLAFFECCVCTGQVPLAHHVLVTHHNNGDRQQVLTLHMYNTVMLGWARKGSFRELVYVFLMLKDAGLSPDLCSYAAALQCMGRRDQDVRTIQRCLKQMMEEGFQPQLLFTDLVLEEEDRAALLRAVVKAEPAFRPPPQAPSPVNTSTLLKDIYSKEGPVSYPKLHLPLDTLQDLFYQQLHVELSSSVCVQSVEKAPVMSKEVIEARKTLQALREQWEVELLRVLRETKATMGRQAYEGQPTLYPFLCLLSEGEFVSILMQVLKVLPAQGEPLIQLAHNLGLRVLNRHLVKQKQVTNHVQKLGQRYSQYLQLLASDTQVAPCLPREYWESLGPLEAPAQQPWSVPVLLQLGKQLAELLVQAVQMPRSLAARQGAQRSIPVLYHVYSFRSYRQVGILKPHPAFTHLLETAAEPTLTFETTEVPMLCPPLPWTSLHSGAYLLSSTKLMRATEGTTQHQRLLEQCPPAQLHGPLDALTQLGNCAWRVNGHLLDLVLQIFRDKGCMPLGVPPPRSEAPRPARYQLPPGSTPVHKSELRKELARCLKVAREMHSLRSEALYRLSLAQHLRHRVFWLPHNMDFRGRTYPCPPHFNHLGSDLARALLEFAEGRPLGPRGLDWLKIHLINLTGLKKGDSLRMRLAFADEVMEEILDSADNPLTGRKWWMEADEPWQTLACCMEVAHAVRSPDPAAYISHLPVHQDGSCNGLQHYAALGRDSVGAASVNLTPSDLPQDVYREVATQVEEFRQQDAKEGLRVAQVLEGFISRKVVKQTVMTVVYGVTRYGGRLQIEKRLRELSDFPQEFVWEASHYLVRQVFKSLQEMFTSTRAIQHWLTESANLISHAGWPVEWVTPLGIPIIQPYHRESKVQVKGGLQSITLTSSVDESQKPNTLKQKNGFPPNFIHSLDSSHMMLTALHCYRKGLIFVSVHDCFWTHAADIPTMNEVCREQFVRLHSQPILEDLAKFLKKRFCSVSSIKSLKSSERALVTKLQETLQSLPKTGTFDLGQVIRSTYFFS
Compound,IC50 [1],IC50 [2]
"CCNC(=O)C(C)Oc1ccc2c(-c3ccc(F)cc3Cl)cc(=O)oc2c1 (stereo not shown) [Compound 91, 2-[4-(2-chloro-4-fluoro-phenyl)-2-oxo-chromen-7-yl]oxy-N-ethyl-propanamide]",0.02 to 0.1 µM,< 0.01 µM
"C[C@@H](Oc1ccc2c(-c3ccc(F)cc3Cl)cc(=O)oc2c1)C(=O)N1CC[C@H](C(=O)O)C1 [Compound 159, (3S)-1-[(2R)-2-[4-(2-chloro-4-fluoro-phenyl)-2-oxo-chromen-7-yl]oxypropanoyl]pyrrolidine-3-carboxylic acid]",0.02 to 0.1 µM,0.5 to 5 µM
"C[C@@H](Oc1ccc2c(-c3ccc(F)cc3Cl)cc(=O)oc2c1)C(=O)Nc1ccc(C(=O)O)cc1 [Compound 141, 4-[[(2R)-2-[4-(2-chloro-4-fluoro-phenyl)-2-oxo-chromen-7-yl]oxypropanoyl]amino]benzoic acid]",< 0.02 µM,0.05 to 0.5 µM
"CCCCCCCOC(=O)C[C@H]1CCCN(C(=O)[C@@H](C)Oc2ccc3c(-c4ccc(F)cc4Cl)cc(=O)oc3c2)C1 [Compound 126, heptyl 2-[(3R)-1-[(2R)-2-[4-(2-chloro-4-fluoro-phenyl)-2-oxo-chromen-7-yl]oxypropanoyl]-3-piperidyl]acetate]",0.1 to 1 µM,< 0.01 µM
"Cc1ccsc1-c1cc(=O)oc2cc(O[C@H](C)C(=O)N3CCC[C@H](CC(=O)O)C3)ccc12 [Compound 181, 2-[(3R)-1-[(2R)-2-[4-(3-methyl-2-thienyl)-2-oxo-chromen-7-yl]oxypropanoyl]-3-piperidyl]acetic acid]",0.02 to 0.1 µM,0.01 to 0.05 µM
"Cc1ccsc1-c1cc(=O)oc2cc(O[C@H](C)C(=O)N(C)C)ccc12 [Compound 179, (2R)-N,N-dimethyl-2-[4-(3-methyl-2-thienyl)-2-oxo-chromen-7-yl]oxy-propanamide]",0.1 to 1 µM,0.01 to 0.05 µM
"CC(Oc1ccc2c(-c3ccccc3Cl)cc(=O)oc2c1)C(=O)N1CCC[C@H](C(=O)O)C1 (stereo partly drawn) [Compound 33, (3S)-1-[2-[4-(2-chlorophenyl)-2-oxo-chromen-7-yl]oxypropanoyl]piperidine-3-carboxylic acid]",< 0.02 µM,< 0.01 µM
"CNC(=O)C1CCCN(C(=O)C(C)Oc2ccc3c(-c4ccccc4Cl)cc(=O)oc3c2)C1 (stereo not shown) [Compound 15, 1-[2-[4-(2-chlorophenyl)-2-oxo-chromen-7-yl]oxypropanoyl]-N-methyl-piperidine-3-carboxamide]",< 0.02 µM,< 0.01 µM
"Cc1cscc1-c1cc(=O)oc2cc(O[C@H](C)C(=O)N3CCC[C@H](C(=O)O)C3)ccc12 [Compound 182, (3S)-1-[(2R)-2-[4-(4-methyl-3-thienyl)-2-oxo-chromen-7-yl]oxypropanoyl]piperidine-3-carboxylic acid]",< 0.02 µM,< 0.01 µM
"CCOC(=O)CC1CCCN(C(=O)C(C)Oc2ccc3c(-c4ccccc4Cl)cc(=O)oc3c2)C1 (stereo not shown) [Compound 86, ethyl 2-[1-[2-[4-(2-chlorophenyl)-2-oxo-chromen-7-yl]oxypropanoyl]-3-piperidyl]acetate]",0.02 to 0.1 µM,0.01 to 0.05 µM
"CC(Oc1ccc2c(-c3ccccc3Cl)cc(=O)oc2c1)C(=O)N1CCCC(CC(=O)O)C1 (stereo not shown) [Compound 66, 2-[1-[2-[4-(2-chlorophenyl)-2-oxo-chromen-7-yl]oxypropanoyl]-3-piperidyl]acetic acid]",0.02 to 0.1 µM,< 0.01 µM
"C[C@@H](Oc1ccc2c(-c3ccccc3Cl)cc(=O)oc2c1)C(=O)N1CCC[C@H](C(=O)O)C1 [Compound 23, (3S)-1-[(2R)-2-[4-(2-chlorophenyl)-2-oxo-chromen-7-yl]oxypropanoyl]piperidine-3-carboxylic acid]",< 0.02 µM,< 0.01 µM
"Cc1cscc1-c1cc(=O)oc2cc(O[C@H](C)C(=O)N3CCCCC3)ccc12 [Compound 183, 7-[(1R)-1-methyl-2-oxo-2-(1-piperidyl)ethoxy]-4-(4-methyl-3-thienyl)chromen-2-one]",< 0.02 µM,< 0.01 µM
"C[C@@H](Oc1ccc2c(-c3ccc(F)cc3Cl)cc(=O)oc2n1)C(=O)N1CCC[C@H](C(=O)O)C1 [Compound 173, (3S)-1-[(2R)-2-[4-(2-chloro-4-fluoro-phenyl)-2-oxo-pyrano[2,3-b]pyridin-7-yl]oxypropanoyl]piperidine-3-carboxylic acid]",0.02 to 0.1 µM,0.05 to 0.5 µM
"COC(=O)[C@H]1CN(C(=O)[C@@H](C)Oc2ccc3c(-c4ccc(F)cc4Cl)cc(=O)oc3c2)CCN1 [Compound 136, methyl (2R)-4-[(2R)-2-[4-(2-chloro-4-fluoro-phenyl)-2-oxo-chromen-7-yl]oxypropanoyl]piperazine-2-carboxylate]",0.02 to 0.1 µM,0.01 to 0.05 µM

# Next, values leading:
IC50 [1],IC50 [2],Compound
0.02 to 0.1 µM,< 0.01 µM,"CC(C)OC(=O)C[C@H]1CCCN(C(=O)[C@@H](C)Oc2ccc3c(-c4ccc(F)cc4Cl)cc(=O)oc3c2)C1 [Compound 123, isopropyl 2-[(3R)-1-[(2R)-2-[4-(2-chloro-4-fluoro-phenyl)-2-oxo-chromen-7-yl]oxypropanoyl]-3-piperidyl]acetate]"
0.02 to 0.1 µM,< 0.01 µM,"Cc1ccccc1-c1cc(=O)oc2cc(OC(C)C(=O)N3CCC[C@@H](C(=O)N(C)C)C3)ccc12 (stereo partly drawn) [Compound 78, (3R)-N,N-dimethyl-1-[2-[4-(o-tolyl)-2-oxo-chromen-7-yl]oxypropanoyl]piperidine-3-carboxamide]"
< 0.02 µM,0.01 to 0.05 µM,"C[C@@H](Oc1ccc2c(-c3ccc(F)cc3Cl)cc(=O)oc2c1)C(=O)N1CC[C@@H](CC(=O)O)C1 [Compound 147, 2-[(3S)-1-[(2R)-2-[4-(2-chloro-4-fluoro-phenyl)-2-oxo-chromen-7-yl]oxypropanoyl]pyrrolidin-3-yl]acetic acid]"
< 0.02 µM,< 0.01 µM,"CCC(=O)N[C@H]1CCCN(C(=O)[C@@H](C)Oc2ccc3c(-c4ccc(F)cc4Cl)cc(=O)oc3c2)C1 [Compound 169, N-[(3S)-1-[(2R)-2-[4-(2-chloro-4-fluoro-phenyl)-2-oxo-chromen-7-yl]oxypropanoyl]-3-piperidyl]propanamide]"
0.02 to 0.1 µM,0.05 to 0.5 µM,"CCOC(=O)[C@H]1CCCN(C(=O)[C@@H](C)Oc2ccc3c(-c4ccc(F)cc4Cl)cc(=O)oc3c2)C1 [Compound 111, ethyl (3S)-1-[(2R)-2-[4-(2-chloro-4-fluoro-phenyl)-2-oxo-chromen-7-yl]oxypropanoyl] piperidine-3-carboxylate]"
< 0.02 µM,< 0.01 µM,"C[C@@H](Oc1ccc2c(-c3ccc(F)cc3Cl)cc(=O)oc2c1)C(=O)N1CCC[C@H](NC(=O)CCl)C1 [Compound 167, 2-chloro-N-[(3S)-1-[(2R)-2-[4-(2-chloro-4-fluoro-phenyl)-2-oxo-chromen-7-yl]oxypropanoyl]-3-piperidyl]acetamide]"
< 0.02 µM,< 0.01 µM,"CC(Oc1ccc2c(-c3ccccc3Cl)cc(=O)oc2c1)C(=O)N1CCCCC1 (stereo not shown) [Compound 2, 4-(2-chlorophenyl)-7-[1-methyl-2-oxo-2-(1-piperidyl)ethoxy]chromen-2-one]"
0.02 to 0.1 µM,0.01 to 0.05 µM,"CCOC(=O)C(C)Oc1ccc2c(-c3ccccc3Br)cc(=O)oc2c1 (stereo not shown) [Compound 81, ethyl 2-[4-(2-bromophenyl)-2-oxo-chromen-7-yl]oxypropanoate]"
